Measured values published in ChEMBL document CHEMBL4813985, “Lead optimization generates selenium-containing miconazole CYP51 inhibitors with improved pharmacological profile for the treatment of fungal infections” (Eur J Med Chem, 2021).
Values after ≈ are worked out from the molar mass of the structure shown.

Tests used:
[1] = target: T1, Lanosterol 14-alpha demethylase (Candida albicans (strain SC5314 / ATCC MYA-2876) (Yeast), UniProt P10613); assay: Inhibition of CYP51 in Candida albicans ATCC SC5314 assessed as lanosterol level at 2 ug/ml after 16 hrs by GC-MS analysis (reference value: 1.7%); design: scale not given: the % may be the effect or the level left; settings: candida albicans sc5314, 16 h, at 2 µg/mL
T1 sequence (P10613 whole entry): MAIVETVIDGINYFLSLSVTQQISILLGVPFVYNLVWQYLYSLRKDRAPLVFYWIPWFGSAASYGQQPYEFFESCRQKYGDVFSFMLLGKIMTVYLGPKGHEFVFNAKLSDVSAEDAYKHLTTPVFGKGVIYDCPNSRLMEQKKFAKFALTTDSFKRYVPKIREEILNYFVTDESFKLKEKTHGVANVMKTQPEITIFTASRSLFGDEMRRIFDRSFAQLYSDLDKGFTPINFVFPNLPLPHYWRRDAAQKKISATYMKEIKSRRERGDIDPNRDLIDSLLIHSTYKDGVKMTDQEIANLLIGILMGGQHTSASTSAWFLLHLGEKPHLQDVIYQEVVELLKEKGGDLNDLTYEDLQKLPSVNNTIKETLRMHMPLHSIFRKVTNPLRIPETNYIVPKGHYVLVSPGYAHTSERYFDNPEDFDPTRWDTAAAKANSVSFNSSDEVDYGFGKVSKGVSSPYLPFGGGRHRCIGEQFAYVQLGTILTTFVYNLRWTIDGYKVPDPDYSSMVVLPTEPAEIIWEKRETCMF

[2] = target: T1, Lanosterol 14-alpha demethylase; assay: Inhibition of CYP51 in Candida albicans ATCC SC5314 assessed as lanosterol level at 0.03125 ug/ml after 16 hrs by GC-MS analysis (reference value: 1.7%); design: scale not given: the % may be the effect or the level left; settings: candida albicans sc5314, 16 h, at 0.03125 µg/mL
MDA-MB-231 = assay: Cytotoxicity against human MDA-MB-231 cells assessed as reduction in cell viability incubated for 96 hrs by MTT assay; settings: MDA-MB-231, 96 h
[3] = target: T1, Lanosterol 14-alpha demethylase; assay: Inhibition of CYP51 in Candida albicans ATCC SC5314 assessed as Obtusifoliol level at 2 ug/ml after 16 hrs by GC-MS analysis (reference value: 0%); design: scale not given: the % may be the effect or the level left; settings: candida albicans sc5314, 16 h, at 2 µg/mL
[4] = target: T1, Lanosterol 14-alpha demethylase; assay: Inhibition of CYP51 in Candida albicans ATCC SC5314 assessed as Eburicol level at 2 ug/ml after 16 hrs by GC-MS analysis (reference value: 0%); design: scale not given: the % may be the effect or the level left; settings: candida albicans sc5314, 16 h, at 2 µg/mL
[5] = target: T1, Lanosterol 14-alpha demethylase; assay: Inhibition of CYP51 in Candida albicans ATCC SC5314 assessed as ergosterol level at 0.5 ug/ml after 16 hrs by GC-MS analysis (reference value: 98.3%); design: scale not given: the % may be the effect or the level left; settings: candida albicans sc5314, 16 h, at 0.5 µg/mL
[6] = Hemolytic activity in rabbit RBC assessed as hemolysis ratio at 16 ug/ml measured after 3 hrs by microplate reader assay relative to control; format: ADME, cell-based, Oryctolagus cuniculus, Erythrocyte; settings: rabbit red blood cells (erythrocytes), at 16 µg/mL, read-out: Activity
[7] = Hemolytic activity in rabbit RBC assessed as hemolysis ratio at 8 ug/ml measured after 3 hrs by microplate reader assay relative to control; format: ADME, cell-based, Oryctolagus cuniculus, Erythrocyte; settings: rabbit red blood cells (erythrocytes), at 8 µg/mL, read-out: Activity
[8] = target: T1, Lanosterol 14-alpha demethylase; assay: Inhibition of CYP51 in Candida albicans ATCC SC5314 assessed as Eburicol level at […] ug/ml after 16 hrs by GC-MS analysis (reference value: 0%); design: scale not given: the % may be the effect or the level left; settings: candida albicans sc5314, 16 h, dose 0.125 µg/ml
Candida albicans [9] = assay: Anti-biofilm activity in Candida albicans CPCC400616 assessed as inhibition of biofilm formation incubated for 24 hrs with 1.5 hrs precultured fungal suspension by XTT assay; format: functional
Candida parapsilosis = assay: Antifungal activity against Candida parapsilosis ATCC 22019 measured after 24 hrs by broth microdilution assay; format: functional; settings: Lodderomyces parapsilosis
[10] = target: T1, Lanosterol 14-alpha demethylase; assay: Inhibition of CYP51 in Candida albicans ATCC SC5314 assessed as lanosterol level at […] ug/ml after 16 hrs by GC-MS analysis (reference value: 1.7%); design: scale not given: the % may be the effect or the level left; settings: candida albicans sc5314, 16 h, dose 0.125 µg/ml
[11] = target: T1, Lanosterol 14-alpha demethylase; assay: Inhibition of CYP51 in Candida albicans ATCC SC5314 assessed as ergosterol level at 8 ug/ml after 16 hrs by GC-MS analysis (reference value: 98.3%); design: scale not given: the % may be the effect or the level left; settings: candida albicans sc5314, 16 h, at 8 µg/mL
[12] = target: T1, Lanosterol 14-alpha demethylase; assay: Inhibition of CYP51 in Candida albicans ATCC SC5314 assessed as Eburicol level at 0.03125 ug/ml after 16 hrs by GC-MS analysis (reference value: 0%); design: scale not given: the % may be the effect or the level left; settings: candida albicans sc5314, 16 h, at 0.03125 µg/mL
[13] = target: T1, Lanosterol 14-alpha demethylase; assay: Inhibition of CYP51 in Candida albicans ATCC SC5314 assessed as lanosterol level at 8 ug/ml after 16 hrs by GC-MS analysis (reference value: 1.7%); design: scale not given: the % may be the effect or the level left; settings: candida albicans sc5314, 16 h, at 8 µg/mL
Pichia kudriavzevii = assay: Antifungal activity against Candida krusei AS2.1045 measured after 24 hrs by broth microdilution assay; format: functional
[14] = target: T1, Lanosterol 14-alpha demethylase; assay: Inhibition of CYP51 in Candida albicans ATCC SC5314 assessed as Obtusifoliol level at 0.5 ug/ml after 16 hrs by GC-MS analysis (reference value: 0%); design: scale not given: the % may be the effect or the level left; settings: candida albicans sc5314, 16 h, at 0.5 µg/mL
HL-60 = assay: Cytotoxicity against human HL-60 cells assessed as reduction in cell viability incubated for 96 hrs by MTT assay; format: cell-based; settings: HL-60, 96 h
[15] = Hemolytic activity in rabbit RBC assessed as hemolysis ratio at 2 ug/ml measured after 3 hrs by microplate reader assay relative to control; format: ADME, cell-based, Oryctolagus cuniculus, Erythrocyte; settings: rabbit red blood cells (erythrocytes), at 2 µg/mL, read-out: Activity
Nakaseomyces glabratus = assay: Antifungal activity against Candida glabrata measured after 24 hrs by broth microdilution assay; format: functional
Candida albicans [16] = assay: Antifungal activity against Candida albicans CPCC400616 measured after 24 hrs by broth microdilution assay; format: functional
Candida albicans [17] = assay: Anti-biofilm activity in Candida albicans CPCC400616 assessed as inhibition of biofilm formation incubated for 24 hrs with 24 hrs precultured fungal suspension by XTT assay; format: functional
[18] = Hemolytic activity in rabbit RBC assessed as hemolysis ratio at 1 ug/ml measured after 3 hrs by microplate reader assay relative to control; format: ADME, cell-based, Oryctolagus cuniculus, Erythrocyte; settings: rabbit red blood cells (erythrocytes), at 1 µg/mL, read-out: Activity
[19] = target: T1, Lanosterol 14-alpha demethylase; assay: Inhibition of CYP51 in Candida albicans ATCC SC5314 assessed as Obtusifoliol level at 8 ug/ml after 16 hrs by GC-MS analysis (reference value: 0%); design: scale not given: the % may be the effect or the level left; settings: candida albicans sc5314, 16 h, at 8 µg/mL
[20] = target: T1, Lanosterol 14-alpha demethylase; assay: Inhibition of CYP51 in Candida albicans ATCC SC5314 assessed as Eburicol level at 8 ug/ml after 16 hrs by GC-MS analysis (reference value: 0%); design: scale not given: the % may be the effect or the level left; settings: candida albicans sc5314, 16 h, at 8 µg/mL
[21] = target: T1, Lanosterol 14-alpha demethylase; assay: Inhibition of CYP51 in Candida albicans ATCC SC5314 assessed as ergosterol level at […] ug/ml after 16 hrs by GC-MS analysis (reference value: 98.3%); design: scale not given: the % may be the effect or the level left; settings: candida albicans sc5314, 16 h, dose 0.125 µg/ml
[Candida] zeylanoides = Antifungal activity against Candida zeylanoides CMGCC2.3739 measured after 24 hrs by broth microdilution assay; format: functional; settings: Dujonia zeylanoides
[22] = target: T1, Lanosterol 14-alpha demethylase; assay: Inhibition of CYP51 in Candida albicans ATCC SC5314 assessed as Obtusifoliol level at 0.03125 ug/ml after 16 hrs by GC-MS analysis (reference value: 0%); design: scale not given: the % may be the effect or the level left; settings: candida albicans sc5314, 16 h, at 0.03125 µg/mL
[23] = Hemolytic activity in rabbit RBC assessed as hemolysis ratio at 4 ug/ml measured after 3 hrs by microplate reader assay relative to control; format: ADME, cell-based, Oryctolagus cuniculus, Erythrocyte; settings: rabbit red blood cells (erythrocytes), at 4 µg/mL, read-out: Activity
Cryptococcus neoformans = assay: Antifungal activity against Cryptococcus neoformans CMGCC2.3161 measured after 72 hrs by broth microdilution assay; format: functional
Candida albicans [24] = assay: Fungicidal activity against Candida albicans CPCC400616 assessed as fungal killing incubated for 48 hrs followed by culturing on PDA plate for 24 hrs; format: functional; settings: time 72 hrs
Candida albicans [25] = assay: Anti-biofilm activity in Candida albicans CPCC400616 assessed as inhibition of biofilm formation incubated for 24 hrs with 6 hrs precultured fungal suspension by XTT assay; format: functional
[26] = target: T1, Lanosterol 14-alpha demethylase; assay: Inhibition of CYP51 in Candida albicans ATCC SC5314 assessed as Eburicol level at 0.5 ug/ml after 16 hrs by GC-MS analysis (reference value: 0%); design: scale not given: the % may be the effect or the level left; settings: candida albicans sc5314, 16 h, at 0.5 µg/mL
PC-3 = assay: Cytotoxicity against human PC3 cells assessed as reduction in cell viability incubated for 96 hrs by MTT assay; format: cell-based; settings: PC-3, 96 h, read-out: IC50

| Structure (SMILES) | Activity [1] [%] | Activity [2] [%] | IC50 (MDA-MB-231) [µM] | Activity [3] [%] | Activity [4] [%] | Activity [5] [%] | hemolysis at 3 h, 16 ug/ml [6] [%] | hemolysis at 3 h, 8 ug/ml [7] [%] | Activity [8] [%] | MIC50 (Candida albicans [9]) [µg/mL] | MIC80 (Candida albicans [9]) [µg/mL] | MIC (Candida parapsilosis) [µg/mL] | Activity [10] [%] | Activity [11] [%] | Activity [12] [%] | Activity [13] [%] | MIC (Pichia kudriavzevii) [µg/mL] | Activity [14] [%] | IC50 (HL-60) [µM] | hemolysis at 3 h, 2 ug/ml [15] [%] | other results |
| --- | --- | --- | --- | --- | --- | --- | --- | --- | --- | --- | --- | --- | --- | --- | --- | --- | --- | --- | --- | --- | --- |
| Clc1ccc(COC(Cn2ccnc2)c2ccc(Cl)cc2Cl)c(Cl)c1 (centres undefined) [MICONAZOLE] | 13.6 | 10 | 17 | 6.1 | 75.2 | 7.1 | 94 | 87.3 | 64.8 | 16 (≈ 38.4 µM) | 128 (≈ 308 µM) | 0.25 (≈ 0.601 µM) | 9.5 | 4.1 | 70.6 | 7.4 | 0.5 (≈ 1.2 µM) | 9 | 0.8 | 8.55 | MIC (Nakaseomyces glabratus): 0.5 µg/mL (≈ 1.2 µM); MIC (Candida albicans [16]): 0.25 µg/mL (≈ 0.601 µM); MIC50 (Candida albicans [17]): > 128 µg/mL; MIC80 (Candida albicans [17]): > 128 µg/mL; hemolysis at 3 h, 1 ug/ml [18]: 0.16%; Activity [19]: 7.8%; Activity [20]: 80.7%; Activity [21]: 8.3%; MIC ([Candida] zeylanoides): 1 µg/mL (≈ 2.4 µM); Activity [22]: 7.2%; hemolysis at 3 h, 4 ug/ml [23]: 81.8%; MIC (Cryptococcus neoformans): 0.5 µg/mL (≈ 1.2 µM); MFC99 (Candida albicans [24]): 2 µg/mL (≈ 4.81 µM); MIC50 (Candida albicans [25]): > 128 µg/mL; MIC80 (Candida albicans [25]): > 128 µg/mL; Activity [26]: 75.1%; IC50 (PC-3): 13.4 µM |
| Fc1ccc([Se]C(Cn2ccnc2)c2ccc(F)cc2F)cc1 (centres undefined) | 9 | 4.1 | 39.5 | 10.8 | 78 | 4.9 | 100 | 0.33 | 73.2 | 4 (≈ 10.5 µM) | 8 (≈ 21 µM) | 0.03 (≈ 0.0787 µM) | 9.9 | 2.1 | 70.2 | 5.7 | 0.5 (≈ 1.31 µM) | 9.9 | 24.8 | 0 | MIC (Nakaseomyces glabratus): 1 µg/mL (≈ 2.62 µM); MIC (Candida albicans [16]): 0.25 µg/mL (≈ 0.656 µM); MIC50 (Candida albicans [17]): > 128 µg/mL; MIC80 (Candida albicans [17]): > 128 µg/mL; hemolysis at 3 h, 1 ug/ml [18]: 0%; Activity [19]: 10.2%; Activity [20]: 82%; Activity [21]: 5.8%; MIC ([Candida] zeylanoides): 0.25 µg/mL (≈ 0.656 µM); Activity [22]: 17%; hemolysis at 3 h, 4 ug/ml [23]: 0%; MIC (Cryptococcus neoformans): 0.5 µg/mL (≈ 1.31 µM); MFC99 (Candida albicans [24]): 1 µg/mL (≈ 2.62 µM); MIC50 (Candida albicans [25]): 64 µg/mL (≈ 168 µM); MIC80 (Candida albicans [25]): 128 µg/mL (≈ 336 µM); Activity [26]: 75.1%; IC50 (PC-3): 54.4 µM |
